What was measured:
mA1AR = molecular target: T1, mA1AR (Mus musculus, UniProt Q60612); assay: Adenosine receptor binding, mA1AR; conditions: (m); Ki; read-out: A1AR % inhibition or Ki (converted)
T1 sequence (Q60612 1-326): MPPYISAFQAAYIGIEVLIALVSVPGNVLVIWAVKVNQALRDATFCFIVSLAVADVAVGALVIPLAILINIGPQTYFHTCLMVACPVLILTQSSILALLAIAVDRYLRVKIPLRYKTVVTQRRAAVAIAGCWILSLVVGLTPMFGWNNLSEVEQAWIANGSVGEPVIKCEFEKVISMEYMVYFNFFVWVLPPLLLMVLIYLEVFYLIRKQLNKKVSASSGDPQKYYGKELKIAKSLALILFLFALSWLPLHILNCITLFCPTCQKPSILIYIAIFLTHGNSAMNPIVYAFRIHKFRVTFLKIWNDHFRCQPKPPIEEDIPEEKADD

hA2AAR = molecular target: T2, hA2AAR (Homo sapiens, UniProt P29274); assay: Radioligand binding in membranes of HEK293 cells expressing hA2AAR; conditions: read-out: A2AAR % inhibition
T2 construct: expressed in transfected cells; host or cells: HEK293

hA3AR = molecular target: T3, hA3AR (Homo sapiens, UniProt P0DMS8); assay: Radioligand binding in membranes of CHO cells expressing hA3AR; conditions: read-out: A3AR % inhibition or Ki; for Ki: (h)
T3 construct: expressed in transfected cells; host or cells: CHO
T3 sequence (P0DMS8 1-318): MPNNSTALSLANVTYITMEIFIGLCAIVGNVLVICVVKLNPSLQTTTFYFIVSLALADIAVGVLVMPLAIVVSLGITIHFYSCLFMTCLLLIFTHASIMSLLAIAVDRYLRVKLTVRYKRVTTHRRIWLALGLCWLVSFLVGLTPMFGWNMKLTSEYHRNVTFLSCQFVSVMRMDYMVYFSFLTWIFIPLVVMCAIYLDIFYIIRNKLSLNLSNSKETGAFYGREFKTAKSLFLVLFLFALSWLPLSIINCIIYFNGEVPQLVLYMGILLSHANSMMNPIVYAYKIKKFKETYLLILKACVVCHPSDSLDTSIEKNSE

mA2AAR = mA2AAR (Mus musculus, UniProt Q60613); assay: Adenosine receptor binding, mA2AAR; conditions: read-out: A2AAR % inhibition (converted)
serotonin receptor 5HT2B = serotonin receptor 5HT2B (Homo sapiens, UniProt P41595); assay: Off-target interaction determined by the PDSP; type: binding; conditions: read-out: Off-target, receptor (h, unless noted) (Ki, μM): 5HT2B
hA1AR = molecular target: T4, hA1AR (Homo sapiens, UniProt P30542); assay: Radioligand binding in membranes of CHO cells expressing hA1AR, [3H]N6-R-phenylisopropyladenosine; conditions: read-out: A1AR % inhibition or Ki; for Ki: (h)
T4 construct: expressed in transfected cells; host or cells: CHO
T4 sequence (P30542 1-326): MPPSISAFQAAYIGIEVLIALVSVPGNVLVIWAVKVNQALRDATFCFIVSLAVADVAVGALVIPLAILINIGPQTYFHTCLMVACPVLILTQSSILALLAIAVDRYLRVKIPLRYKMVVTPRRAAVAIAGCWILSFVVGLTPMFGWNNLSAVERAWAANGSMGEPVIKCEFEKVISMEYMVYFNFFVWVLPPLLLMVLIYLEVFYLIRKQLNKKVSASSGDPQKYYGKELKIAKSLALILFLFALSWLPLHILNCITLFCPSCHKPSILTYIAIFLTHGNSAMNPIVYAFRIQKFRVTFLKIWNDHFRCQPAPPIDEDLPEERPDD

[1] = molecular target: kappa (KOR) opioid receptor (Homo sapiens, UniProt P41145); assay: Off-target interaction determined by the PDSP; type: binding; conditions: read-out: Off-target, receptor (h, unless noted) (Ki, μM): KOR
mA3AR = molecular target: T5, mA3AR (Mus musculus, UniProt Q61618); assay: Adenosine receptor binding, mA3AR; conditions: for Ki: (m), read-out: A3AR % inhibition or Ki (converted)
T5 sequence (Q61618 1-319): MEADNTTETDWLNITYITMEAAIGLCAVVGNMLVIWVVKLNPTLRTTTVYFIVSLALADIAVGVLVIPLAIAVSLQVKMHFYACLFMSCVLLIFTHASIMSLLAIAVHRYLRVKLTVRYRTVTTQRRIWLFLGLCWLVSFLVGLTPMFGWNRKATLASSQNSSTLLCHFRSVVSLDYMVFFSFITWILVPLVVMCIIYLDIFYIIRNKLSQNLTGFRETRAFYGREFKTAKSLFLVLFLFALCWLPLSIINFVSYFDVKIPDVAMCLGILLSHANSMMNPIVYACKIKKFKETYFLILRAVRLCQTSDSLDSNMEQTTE

wild-type C57BL/6J mice [2] = assay: Hypothermia (Tb by telemetry) after ip dosing; type: in vivo, mouse; conditions: average from dosing to 60 min, mean±SD
Procedure: (§1) Compounds were dosed ip. Tb and activity were measured by telemetry and the averages from dosing to 60 min were calculated. […] Data are for the highest dose used and are mean±SD from 3 to 22 mice/group (usually 5-7). P values are unpaired t-Test vs vehicle-treated controls assayed simultaneously. Vehicle data are mean±SD from all (n=83) vehicle treated mice.

adrenergic receptor α2A = adrenergic receptor α2A (Homo sapiens, UniProt P08913); assay: Off-target interaction determined by the PDSP; type: binding; conditions: read-out: Off-target, receptor (h, unless noted) (Ki, μM): α2A
sigma receptor σ1 = sigma receptor σ1 (Homo sapiens, UniProt Q99720); assay: Off-target interaction determined by the PDSP; type: binding; conditions: read-out: Off-target, receptor (h, unless noted) (Ki, μM): σ1
wild-type C57BL/6J mice [3] = assay: Locomotor activity by telemetry after ip dosing; type: in vivo, mouse; conditions: average from dosing to 60 min, mean±SD
Procedure: as §1

sigma receptor σ2 = sigma receptor σ2 (UniProt Q5BJF2); assay: Off-target interaction determined by the PDSP; type: binding, human; conditions: read-out: Off-target, receptor (h, unless noted) (Ki, μM): σ2
[4] = molecular target: TSPO (translocator protein) (UniProt P30536); assay: Off-target interaction determined by the PDSP; type: binding, human; conditions: read-out: Off-target, receptor (h, unless noted) (Ki, μM): TSPO
histamine receptor H3 = histamine receptor H3 (Homo sapiens, UniProt Q9Y5N1); assay: Off-target interaction determined by the PDSP; type: binding; conditions: read-out: Off-target, receptor (h, unless noted) (Ki, μM): H3
adrenergic receptor β3 = adrenergic receptor β3 (Homo sapiens, UniProt P13945); assay: Off-target interaction determined by the PDSP; type: binding; conditions: read-out: Off-target, receptor (h, unless noted) (Ki, μM): β3
histamine receptor H2 = histamine receptor H2 (Homo sapiens, UniProt P25021); assay: Off-target interaction determined by the PDSP; type: binding; conditions: read-out: Off-target, receptor (h, unless noted) (Ki, μM): H2
serotonin receptor 5HT2C = molecular target: T6, serotonin receptor 5HT2C (Homo sapiens, UniProt P28335); assay: Off-target interaction determined by the PDSP; type: binding; conditions: read-out: Off-target, receptor (h, unless noted) (Ki, μM): 5HT2C
T6 sequence (P28335 33-458): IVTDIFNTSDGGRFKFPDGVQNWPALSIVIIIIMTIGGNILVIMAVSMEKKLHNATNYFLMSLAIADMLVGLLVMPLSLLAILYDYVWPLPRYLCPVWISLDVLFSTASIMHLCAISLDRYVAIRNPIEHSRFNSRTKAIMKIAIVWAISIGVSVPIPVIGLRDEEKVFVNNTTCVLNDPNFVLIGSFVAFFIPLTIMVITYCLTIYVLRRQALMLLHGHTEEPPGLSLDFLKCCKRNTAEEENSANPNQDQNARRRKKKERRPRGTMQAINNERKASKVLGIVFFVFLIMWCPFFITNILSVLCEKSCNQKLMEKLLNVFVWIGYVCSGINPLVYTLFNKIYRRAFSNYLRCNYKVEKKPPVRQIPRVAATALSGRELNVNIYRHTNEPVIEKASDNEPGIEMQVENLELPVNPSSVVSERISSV

muscarinic receptor M3 = muscarinic receptor M3 (Homo sapiens, UniProt P20309); assay: Off-target interaction determined by the PDSP; type: binding; conditions: read-out: Off-target, receptor (h, unless noted) (Ki, μM): M3
muscarinic receptor M5 = muscarinic receptor M5 (Homo sapiens, UniProt P08912); assay: Off-target interaction determined by the PDSP; type: binding; conditions: read-out: Off-target, receptor (h, unless noted) (Ki, μM): M5
[5] = molecular target: dopamine transporter (DAT) (Homo sapiens, UniProt Q01959); assay: Off-target interaction determined by the PDSP; type: binding; conditions: read-out: Off-target, receptor (h, unless noted) (Ki, μM): DAT
Chain of dopamine transporter (DAT) (Q01959 whole entry): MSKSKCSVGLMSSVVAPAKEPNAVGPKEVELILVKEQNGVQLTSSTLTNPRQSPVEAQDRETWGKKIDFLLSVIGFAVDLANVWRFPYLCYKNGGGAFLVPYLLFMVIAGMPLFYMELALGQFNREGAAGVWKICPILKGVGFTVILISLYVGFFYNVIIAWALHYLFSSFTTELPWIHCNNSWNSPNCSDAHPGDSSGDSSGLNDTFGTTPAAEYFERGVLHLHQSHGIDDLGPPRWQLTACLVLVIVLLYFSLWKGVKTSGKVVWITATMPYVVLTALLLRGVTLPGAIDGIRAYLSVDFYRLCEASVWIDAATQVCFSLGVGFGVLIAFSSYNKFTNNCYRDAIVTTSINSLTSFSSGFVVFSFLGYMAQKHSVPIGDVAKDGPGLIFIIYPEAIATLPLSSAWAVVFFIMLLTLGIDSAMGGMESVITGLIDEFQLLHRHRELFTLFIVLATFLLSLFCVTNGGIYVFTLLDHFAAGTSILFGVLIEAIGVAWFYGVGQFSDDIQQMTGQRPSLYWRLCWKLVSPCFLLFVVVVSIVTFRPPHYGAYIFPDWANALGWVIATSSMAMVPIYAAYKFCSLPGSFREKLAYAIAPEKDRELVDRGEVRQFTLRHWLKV

Chain of serotonin receptor 5HT2B (P41595 whole entry): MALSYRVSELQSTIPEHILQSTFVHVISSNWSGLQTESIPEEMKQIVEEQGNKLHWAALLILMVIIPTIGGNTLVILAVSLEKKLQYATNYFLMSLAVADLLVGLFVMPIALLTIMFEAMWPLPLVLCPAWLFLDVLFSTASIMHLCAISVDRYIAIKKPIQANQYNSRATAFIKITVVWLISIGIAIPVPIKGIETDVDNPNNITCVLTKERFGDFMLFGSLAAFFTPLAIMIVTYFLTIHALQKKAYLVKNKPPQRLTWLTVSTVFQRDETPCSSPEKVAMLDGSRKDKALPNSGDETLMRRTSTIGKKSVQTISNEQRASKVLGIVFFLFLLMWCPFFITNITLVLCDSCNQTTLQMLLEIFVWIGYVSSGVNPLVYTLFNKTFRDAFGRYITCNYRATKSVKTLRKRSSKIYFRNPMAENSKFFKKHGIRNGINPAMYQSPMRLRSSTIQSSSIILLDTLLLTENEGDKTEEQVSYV
Chain of mA2AAR (Q60613 whole entry): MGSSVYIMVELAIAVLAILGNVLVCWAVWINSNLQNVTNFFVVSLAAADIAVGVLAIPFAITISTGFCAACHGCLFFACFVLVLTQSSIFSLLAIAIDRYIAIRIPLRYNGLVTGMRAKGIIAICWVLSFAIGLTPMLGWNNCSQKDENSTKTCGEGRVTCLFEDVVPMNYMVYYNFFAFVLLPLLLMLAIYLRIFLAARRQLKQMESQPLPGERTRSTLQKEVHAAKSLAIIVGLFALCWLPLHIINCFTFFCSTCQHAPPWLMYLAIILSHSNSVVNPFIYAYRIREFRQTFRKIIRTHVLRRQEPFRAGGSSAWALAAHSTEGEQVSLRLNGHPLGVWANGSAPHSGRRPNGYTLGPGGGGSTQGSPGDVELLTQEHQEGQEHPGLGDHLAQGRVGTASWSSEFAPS
T2 sequence (P29274 whole entry): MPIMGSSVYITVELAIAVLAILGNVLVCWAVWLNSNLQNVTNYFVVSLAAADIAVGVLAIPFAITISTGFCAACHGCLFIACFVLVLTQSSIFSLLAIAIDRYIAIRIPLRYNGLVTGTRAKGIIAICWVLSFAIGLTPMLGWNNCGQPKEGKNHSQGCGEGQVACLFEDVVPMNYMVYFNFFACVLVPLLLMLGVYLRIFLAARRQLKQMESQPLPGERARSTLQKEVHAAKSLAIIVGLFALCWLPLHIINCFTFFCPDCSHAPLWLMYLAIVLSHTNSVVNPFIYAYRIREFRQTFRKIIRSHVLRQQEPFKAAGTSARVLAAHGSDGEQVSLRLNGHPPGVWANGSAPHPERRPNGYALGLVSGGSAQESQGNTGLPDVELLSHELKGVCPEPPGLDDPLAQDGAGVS
Chain of adrenergic receptor β3 (P13945 whole entry): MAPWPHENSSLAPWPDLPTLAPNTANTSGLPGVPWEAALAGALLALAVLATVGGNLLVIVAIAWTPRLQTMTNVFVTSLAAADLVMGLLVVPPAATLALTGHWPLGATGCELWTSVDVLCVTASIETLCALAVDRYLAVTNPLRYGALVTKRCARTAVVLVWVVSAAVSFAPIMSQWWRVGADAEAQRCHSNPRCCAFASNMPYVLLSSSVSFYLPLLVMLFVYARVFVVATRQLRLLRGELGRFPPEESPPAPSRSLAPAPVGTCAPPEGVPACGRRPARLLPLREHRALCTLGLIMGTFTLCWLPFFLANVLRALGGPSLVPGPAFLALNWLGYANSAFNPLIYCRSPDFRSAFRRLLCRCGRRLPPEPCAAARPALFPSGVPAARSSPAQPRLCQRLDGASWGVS
Chain of sigma receptor σ1 (Q99720 whole entry): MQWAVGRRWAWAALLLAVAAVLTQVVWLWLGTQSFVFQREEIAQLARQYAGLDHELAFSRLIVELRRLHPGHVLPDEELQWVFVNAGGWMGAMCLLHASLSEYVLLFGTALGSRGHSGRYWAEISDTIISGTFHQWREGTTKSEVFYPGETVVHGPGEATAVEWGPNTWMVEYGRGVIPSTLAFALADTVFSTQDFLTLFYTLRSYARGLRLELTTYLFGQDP
Chain of histamine receptor H2 (P25021 whole entry): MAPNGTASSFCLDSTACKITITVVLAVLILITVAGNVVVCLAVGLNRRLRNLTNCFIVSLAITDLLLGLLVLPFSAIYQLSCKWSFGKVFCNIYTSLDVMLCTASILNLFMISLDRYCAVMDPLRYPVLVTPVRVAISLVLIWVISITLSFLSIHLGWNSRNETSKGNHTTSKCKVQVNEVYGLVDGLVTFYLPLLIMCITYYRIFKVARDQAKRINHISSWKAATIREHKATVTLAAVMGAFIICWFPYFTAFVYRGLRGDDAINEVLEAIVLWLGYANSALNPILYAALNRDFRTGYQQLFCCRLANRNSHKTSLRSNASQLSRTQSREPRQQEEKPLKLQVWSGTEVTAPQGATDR
Chain of histamine receptor H3 (Q9Y5N1 whole entry): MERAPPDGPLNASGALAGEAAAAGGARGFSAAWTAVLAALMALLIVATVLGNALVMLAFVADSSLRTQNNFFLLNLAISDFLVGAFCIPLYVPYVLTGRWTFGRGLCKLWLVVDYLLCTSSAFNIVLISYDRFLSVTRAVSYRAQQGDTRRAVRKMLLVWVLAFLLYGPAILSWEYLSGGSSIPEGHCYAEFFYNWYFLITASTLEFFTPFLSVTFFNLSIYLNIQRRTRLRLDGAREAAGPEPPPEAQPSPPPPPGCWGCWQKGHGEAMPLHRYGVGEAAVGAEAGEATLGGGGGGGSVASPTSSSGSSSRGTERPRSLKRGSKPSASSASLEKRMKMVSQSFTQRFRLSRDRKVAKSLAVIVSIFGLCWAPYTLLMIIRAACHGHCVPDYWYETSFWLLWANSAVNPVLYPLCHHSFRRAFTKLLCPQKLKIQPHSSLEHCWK
Chain of muscarinic receptor M3 (P20309 whole entry): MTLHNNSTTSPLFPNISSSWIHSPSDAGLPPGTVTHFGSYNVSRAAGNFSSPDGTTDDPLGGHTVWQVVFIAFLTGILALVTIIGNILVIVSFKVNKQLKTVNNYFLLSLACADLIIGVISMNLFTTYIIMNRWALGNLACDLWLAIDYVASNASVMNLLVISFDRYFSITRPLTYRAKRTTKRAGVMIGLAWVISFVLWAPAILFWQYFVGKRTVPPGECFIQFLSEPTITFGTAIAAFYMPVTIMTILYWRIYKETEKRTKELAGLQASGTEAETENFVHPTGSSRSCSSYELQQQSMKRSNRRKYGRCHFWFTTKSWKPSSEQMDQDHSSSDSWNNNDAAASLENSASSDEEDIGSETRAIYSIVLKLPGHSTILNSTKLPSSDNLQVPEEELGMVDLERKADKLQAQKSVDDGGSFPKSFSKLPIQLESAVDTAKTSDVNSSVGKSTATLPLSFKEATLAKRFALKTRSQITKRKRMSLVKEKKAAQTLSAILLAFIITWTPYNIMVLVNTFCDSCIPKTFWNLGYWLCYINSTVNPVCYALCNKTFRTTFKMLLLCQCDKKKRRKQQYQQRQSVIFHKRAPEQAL
Chain of adrenergic receptor α2A (P08913 whole entry): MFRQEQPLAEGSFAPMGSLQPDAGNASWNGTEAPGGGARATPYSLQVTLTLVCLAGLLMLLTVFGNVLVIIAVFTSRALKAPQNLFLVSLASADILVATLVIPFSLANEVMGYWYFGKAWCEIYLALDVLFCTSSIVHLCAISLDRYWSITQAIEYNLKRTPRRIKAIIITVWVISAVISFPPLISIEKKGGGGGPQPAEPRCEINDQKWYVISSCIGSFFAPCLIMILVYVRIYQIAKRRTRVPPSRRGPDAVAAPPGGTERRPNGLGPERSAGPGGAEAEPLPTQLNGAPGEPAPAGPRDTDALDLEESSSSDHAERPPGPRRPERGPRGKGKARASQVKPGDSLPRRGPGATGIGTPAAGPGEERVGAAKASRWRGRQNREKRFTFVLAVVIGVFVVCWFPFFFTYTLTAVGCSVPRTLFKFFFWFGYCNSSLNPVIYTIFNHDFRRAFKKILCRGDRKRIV
Chain of kappa (KOR) opioid receptor (P41145 whole entry): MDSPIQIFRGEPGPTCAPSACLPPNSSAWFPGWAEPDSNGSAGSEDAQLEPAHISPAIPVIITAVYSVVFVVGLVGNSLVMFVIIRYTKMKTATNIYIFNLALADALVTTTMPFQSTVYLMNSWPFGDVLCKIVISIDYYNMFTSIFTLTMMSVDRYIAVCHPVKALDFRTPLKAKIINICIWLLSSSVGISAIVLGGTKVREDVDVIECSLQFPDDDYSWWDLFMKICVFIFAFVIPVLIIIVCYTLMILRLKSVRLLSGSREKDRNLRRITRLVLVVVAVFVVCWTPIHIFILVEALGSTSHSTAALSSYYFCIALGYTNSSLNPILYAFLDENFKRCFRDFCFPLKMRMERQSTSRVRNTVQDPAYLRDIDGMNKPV

Ki (mA1AR) [nM] | Ki (hA3AR) [nM] | inhibition at 10 µM (mA2AAR) [%] | Ki (serotonin receptor 5HT2B) [µM] | Ki (hA1AR) [nM] | Ki (mA3AR) [nM] | inhibition at 10 µM (hA2AAR) [%] | inhibition at 10 µM (hA3AR) [%] | Ki (sigma receptor σ2) [µM] | Ki [4] [µM] | Ki (serotonin receptor 5HT2C) [µM] | SMILES | Tb (° C.) (wild-type C57BL/6J mice [2]; 10 mg/kg ip) [°C] | Activity (counts) (wild-type C57BL/6J mice [3]; 10 mg/kg ip) | other results
11.2 | 3820 ± 1820 | 20 | – | 120 ± 23 | – | 17 ± 24 | – | 0.349 | 2.89 | 1.75 | O[C@H]1[C@H](n2cnc3c(NC(C4CCC4)C4CCC4)nc(Cl)nc32)[C@H]2C[C@@]2(CCl)[C@H]1O [Compound 27, (1S,2R,3S,4R,5S)-4-(2-Chloro-6-((dicyclobutylmethyl)amino)-9H-purin-9-yl)-1-(chloromethyl)bicyclo[3.1.0]hexane-2,3-diol] | 36.5 ± 0.6 | 18.9 ± 10.2 | Ki (histamine receptor H2): 2.6 µM
– | 1160 ± 300 | – | 0.097 | 73.8 ± 14.2 | – | 57 ± 12 | – | 2.02 | – | 0.089 | CCOC(=O)[C@@]12C[C@@H]1[C@@H](n1cnc3c(NC(C4CCC4)C4CCC4)nc(Cl)nc31)[C@H](O)[C@@H]2O [Compound 35, Ethyl (1S,2R,3S,4R,5S)-4-(2-Chloro-6-((dicyclobutylmethyl)amino)-9H-purin-9-yl)-2,3-dihydroxybicyclo[3.1.0]hexane-1-carboxylate] | – | – | Ki (muscarinic receptor M3): 5.9 µM
2.47 | – | 26 | – | 8.96 ± 1.02 | 612 | 55 ± 5 | 25 ± 2 | – | 2.93 | 0.238 | OC[C@@]12C[C@@H]1[C@@H](n1cnc3c(NC(C4CCC4)C4CCC4)nc(Cl)nc31)[C@H](O)[C@@H]2O [Compound 25, (1R,2R,3S,4R,5S)-4-(2-Chloro-6-((dicyclobutylmethyl)amino)-9H-purin-9-yl)-1-(hydroxymethyl)bicyclo[3.1.0]hexane-2,3-diol] | 36.6 ± 0.2 | 18.4 ± 3.2 | Ki (muscarinic receptor M5): 3 µM; Ki [5]: 4.75 µM

The remaining lines, values behind:

SMILES | Ki (mA1AR) [nM] | Ki (hA3AR) [nM] | inhibition at 10 µM (mA2AAR) [%] | Ki (serotonin receptor 5HT2B) [µM] | Ki (hA1AR) [nM] | Ki (mA3AR) [nM] | inhibition at 10 µM (hA2AAR) [%] | inhibition at 10 µM (hA3AR) [%] | Ki (sigma receptor σ2) [µM] | Ki [4] [µM] | Ki (serotonin receptor 5HT2C) [µM] | Tb (° C.) (wild-type C57BL/6J mice [2]; 10 mg/kg ip) [°C] | Activity (counts) (wild-type C57BL/6J mice [3]; 10 mg/kg ip) | other results
O=C(NCCO)[C@@]12C[C@@H]1[C@@H](n1cnc3c(N[C@H]4C[C@H]5CC[C@@H]4C5)nc(Cl)nc31)[C@H](O)[C@@H]2O [Compound 37, (1S,2R,3S,4R,5S)-4-(6-(((1R,2S,4S)-bicyclo[2.2.1]heptan-2-yl)amino)-2-chloro-9H-purin-9-yl)-2,3-dihydroxy-N-(2-hydroxyethyl)bicyclo[3.1.0]hexane-1-carboxamide] | 1.56 | 127 ± 29 | 23 | 0.718 | 17.6 ± 5.3 | 447 | – | – | – | – | – | – | – | Ki (hA2AAR; (h), values without % sign (Ki)): 5400 nM; Ki [1]: 2.63 µM
O[C@H]1[C@H](n2cnc3c(NC(C4CCC4)C4CCC4)ncnc32)[C@H]2C[C@@]2(CCl)[C@H]1O [Compound 26, (1S,2R,3S,4R,5S)-1-(Chloromethyl)-4-(6-((dicyclobutylmethyl)amino)-9H-purin-9-yl)bicyclo[3.1.0]hexane-2,3-diol] | 1.05 | – | – | 2.01 | 32.7 ± 12.4 | 934 | 38 ± 3 | 49 ± 4 | 1.17 | 2.02 | – | – | – | Tb (° C.) (wild-type C57BL/6J mice [2]; 3 mg/kg ip): 35.9 ± 0.5 °C; Ki (adrenergic receptor α2A): 6.8 µM; Ki (sigma receptor σ1): 1.5 µM; Activity (counts) (wild-type C57BL/6J mice [3]; 3 mg/kg ip): 14.8 ± 1.7 counts
COC(=O)c1ncn([C@H]2[C@H](O)[C@H](O)[C@]3(CO)C[C@H]23)n1 [Compound 39, Methyl 1-((1S,2R,3S,4R,5R)-3,4-dihydroxy-5-(hydroxymethyl)bicyclo[3.1.0]hexan-2-yl)-1H-1,2,4-triazole-3-carboxylate] | 2990 ± 80 | – | – | – | – | – | 14 ± 5 | 22 ± 4 | 1.72 | – | – | – | – | Ki (histamine receptor H3): 4.52 µM; Ki (adrenergic receptor β3): 1.42 µM; inhibition at 10 µM (hA1AR): 6 ± 4%; inhibition at 10 µM (mA3AR; read-out: A3AR % inhibition or Ki): 15 ± 2%

Source: patent US12378248B2 (The United States of America, as represented by the …, priority 2018, dated 2025)
